Assay results reported in ChEMBL document CHEMBL1806435, “Discovery of bacterial NAD+-dependent DNA ligase inhibitors: optimization of antibacterial activity” (Bioorg Med Chem Lett, 2011).
≈ marks a conversion by molar mass, not a printed value.

How the values were obtained:
[1] = Inhibition of Staphylococcus aureus LigA by FRET-based assay
[2] = Inhibition of […] LigA by FRET-based assay; parameters: species or system Haemophilus influenzae
[3] = Inhibition of Streptococcus pneumoniae LigA by FRET-based assay
[4] = Inhibition of Escherichia coli LigA by FRET-based assay
[5] = target: DNA ligase 1 (Homo sapiens, UniProt P18858); test: Inhibition of human DNA Ligase I by FRET-based assay
[6] = system: Streptococcus pneumoniae; test: Antibacterial activity against Streptococcus pneumoniae; format: functional
[7] = system: Haemophilus influenzae; test: Antibacterial activity against efflux pump-deficient Haemophilus influenzae; format: functional
[8] = Plasma protein binding in human assessed as fraction unbound by equilibrium dialysis method; format: ADME, cell-free
[9] = system: Staphylococcus aureus; test: Antibacterial activity against Staphylococcus aureus; format: functional
[10] = Lipophilicity, log D of the compound in octanol buffer at pH 7.4 by shake flask method; format: physicochemical
[11] = Equilibrium solubility of the compound; format: physicochemical
[12] = Apparent permeability from apical to basolateral side in human Caco2 cells; format: ADME, cell-based; conditions: Caco-2

Sequence of DNA ligase 1 (P18858 whole entry): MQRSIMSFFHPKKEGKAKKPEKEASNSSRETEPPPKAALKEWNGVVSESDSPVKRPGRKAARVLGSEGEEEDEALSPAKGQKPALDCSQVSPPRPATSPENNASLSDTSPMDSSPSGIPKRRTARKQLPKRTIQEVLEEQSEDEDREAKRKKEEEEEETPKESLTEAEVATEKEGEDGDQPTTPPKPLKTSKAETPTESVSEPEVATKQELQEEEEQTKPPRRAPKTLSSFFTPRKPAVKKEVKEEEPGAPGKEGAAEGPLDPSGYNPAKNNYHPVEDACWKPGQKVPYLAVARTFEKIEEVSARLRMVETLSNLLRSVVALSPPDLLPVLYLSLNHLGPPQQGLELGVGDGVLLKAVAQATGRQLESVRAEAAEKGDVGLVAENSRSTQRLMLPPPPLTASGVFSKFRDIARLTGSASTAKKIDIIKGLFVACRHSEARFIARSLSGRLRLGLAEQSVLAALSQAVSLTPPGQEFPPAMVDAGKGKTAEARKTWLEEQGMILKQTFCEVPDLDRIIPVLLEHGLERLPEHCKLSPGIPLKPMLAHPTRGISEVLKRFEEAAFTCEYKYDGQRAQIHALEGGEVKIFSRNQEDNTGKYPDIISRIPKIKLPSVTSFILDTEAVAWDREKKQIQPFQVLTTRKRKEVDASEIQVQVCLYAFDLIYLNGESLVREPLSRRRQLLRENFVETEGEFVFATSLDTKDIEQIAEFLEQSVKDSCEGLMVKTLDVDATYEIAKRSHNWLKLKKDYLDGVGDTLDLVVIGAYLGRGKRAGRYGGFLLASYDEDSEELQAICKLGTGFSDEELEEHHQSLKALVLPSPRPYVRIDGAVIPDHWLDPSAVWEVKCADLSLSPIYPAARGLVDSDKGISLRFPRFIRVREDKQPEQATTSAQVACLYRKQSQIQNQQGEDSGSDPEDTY

Row | SMILES | IC50 [1] [nM] | IC50 [2] [nM] | IC50 [3] [nM] | IC50 [4] [nM] | IC50 [5] [nM] | MIC [6] [µg/mL] | MIC [7] [µg/mL] | fraction unbound [8] | MIC [9] [µg/mL] | logD [10] | solubility thermodynamic [11] [µM] | Papp A→B [12] [×10⁻⁶ cm/s]
1 | CCCCSc1nc(N)c2ncn([C@@H]3O[C@H](CO)[C@@H](O)[C@H]3O)c2n1 | 80 | 510 | 140 | 1270 | > 200000 | 32 (≈ 90 µM) | 32 (≈ 90 µM) | 0.003 | > 64 |  |  | 
2 | Nc1nc(OC2CCCC2)nc2c1ncn2[C@@H]1O[C@H](CF)[C@@H](O)[C@H]1O | 120 |  | 120 |  |  | 4 (≈ 11.3 µM) |  |  | 16 (≈ 45.3 µM) |  |  | 
3 | Nc1nc(OC2CCCC2)nc2c1ncn2[C@@H]1O[C@H](CO)[C@@H](O)[C@H]1O | 430 |  | 150 |  |  | 16 (≈ 45.5 µM) |  | 0.66 | 64 (≈ 182 µM) |  |  | 
4 | C[C@H]1O[C@@H](n2cnc3c(N)nc(OC4CC5CC5C4)nc32)[C@H](O)[C@@H]1O (some centres undefined) | 130 |  | 60 |  |  | 2 (≈ 5.76 µM) |  |  | 4 (≈ 11.5 µM) |  |  | 
5 | C[C@H]1O[C@@H](n2cnc3c(N)nc(OC4CCCC4)nc32)[C@H](O)[C@@H]1OCc1ccc(Cl)c(Cl)c1 | 130 |  | < 10 |  |  | 0.5 (≈ 1.01 µM) |  |  | 8 (≈ 16.2 µM) | > 3.5 | < 1 | 
6 | [N-]=[N+]=N[C@@H]1[C@@H](O)[C@H](n2cnc3c(N)nc(OC4CCCC4)nc32)O[C@@H]1CF | 90 |  | 70 |  |  | 0.5 (≈ 1.32 µM) |  | 0.19 | 8 (≈ 21.1 µM) | 2.65 |  | 
7 | Nc1nc(OCC2(CO)CC2)nc2c1ncn2[C@@H]1O[C@H](CF)[C@@H](O)[C@H]1O | 370 |  | 400 |  |  | > 64 |  |  | > 64 |  |  | 
8 | C[C@H]1O[C@@H](n2cnc3c(N)nc(OC4CCCC4)nc32)[C@H](O)[C@H]1Cl | 40 |  | 40 |  |  | 4 (≈ 11.3 µM) |  |  | 8 (≈ 22.6 µM) | 3.18 | 304 (≈ 108 µg/mL) | 
9 | C[C@H]1O[C@@H](n2cnc3c(N)nc(OCC4CC45CC5)nc32)[C@H](O)[C@@H]1O (some centres undefined) | 60 |  | 40 |  |  | 1 (≈ 2.88 µM) |  | 0.25 | 2 (≈ 5.76 µM) | 1.78 | 801 (≈ 278 µg/mL) | 
10 | Nc1nc(OC2CCCC2)nc2c1ncn2[C@@H]1O[C@H](CO)[C@H](Cl)[C@H]1O | 110 |  | 80 |  |  | 8 (≈ 21.6 µM) |  |  | 8 (≈ 21.6 µM) |  |  | 
11 | C[C@H]1O[C@@H](n2cnc3c(N)nc(OC4CCCC4)nc32)[C@H](O)[C@@H]1O | 120 |  | 80 |  |  | 2 (≈ 5.96 µM) |  |  | 8 (≈ 23.9 µM) |  |  | 7.26
12 | C[C@H]1O[C@@H](n2cnc3c(N)nc(OCC4CC45CC5)nc32)[C@H](O)[C@H]1Cl (some centres undefined) | 30 |  | 20 |  |  | 0.5 (≈ 1.37 µM) |  | 0.04 | 1 (≈ 2.73 µM) | 3.7 | 21 (≈ 7.68 µg/mL) | 
13 | Nc1nc(SC2CCCC2)nc2c1ncn2[C@@H]1O[C@H](CO)[C@@H](O)[C@H]1O | 380 |  | 440 |  |  | 16 (≈ 43.5 µM) |  |  | 32 (≈ 87.1 µM) |  |  | 
14 | Nc1nc(OCc2nccs2)nc2c1ncn2[C@@H]1O[C@H](CF)[C@@H](O)[C@H]1O | 910 |  | 870 |  |  | 64 (≈ 167 µM) |  |  | > 64 |  |  | 
15 | C[C@H]1O[C@@H](n2cnc3c(N)nc(O[C@H]4CC[C@H](C)CC4)nc32)[C@H](O)[C@@H]1O | 160 |  | 50 |  |  | 1 (≈ 2.75 µM) |  | 0.27 | 2 (≈ 5.5 µM) | 2.35 | 934 (≈ 339 µg/mL) | 
16 | Nc1nc(OCC2CCC2)nc2c1ncn2[C@@H]1O[C@H](CF)[C@@H](O)[C@H]1O | 60 |  | 50 |  |  | 2 (≈ 5.66 µM) |  |  | 8 (≈ 22.6 µM) |  |  | 
17 | CCCCSc1nc(N)c2ncn([C@@H]3O[C@H](C)[C@@H](O)[C@H]3O)c2n1 | 170 |  | 130 |  |  | 8 (≈ 23.6 µM) |  |  | 64 (≈ 189 µM) |  |  | 
18 | C[C@H]1O[C@@H](n2cnc3c(N)nc(Oc4ccccc4)nc32)[C@H](O)[C@@H]1O | 140 |  | 2670 |  |  | 64 (≈ 186 µM) |  |  | 64 (≈ 186 µM) |  |  | 
